Experimental data reported in patent US8840931B2, “Pharmaceutical compositions for dehydrating, atrophying and eliminating pathological tissues” (priority 2008, dated 2014).

Key:
related diseases = test: Clinical experiment observations (overall statement); settings: human, in vivo
bleeding wounds = test: Treatment of bleeding wounds for hemostasis; type: in vivo; settings: used for hemostasis
Source text: The inventors determined that the mechanism of this phenomenon was the dehydration, atrophy, and elimination of blood and blood tissues, rather than the well-known mechanism of an astringent of Monsell in the literature in which hemostasis was caused by forming a thrombus of blood platelet and fibrin, aggregation of erythrocyte, and accelerated coagulation of blood.

ferric subsulfate
clinical use to treat related diseases (related diseases): successfully used
observation on bleeding wounds (bleeding wounds): formation of black solid particulate matter was observed
